Assay results reported in PMC7816196, “Antitubercular 2-Pyrazolylpyrimidinones: Structure–Activity Relationship and Mode-of-Action Studies” (Journal of Medicinal Chemistry, 2021).
In brackets after ≈: the same amount, converted by molar mass.

Assays:
Mtb H37Rv = assay: MIC against Mtb H37Rv, Alamar Blue broth microdilution; assay type: cell-based, Mycobacterium tuberculosis; conditions: for MIC: Mycobacterium tuberculosis, H37RV
H37Rv = assay: microbe, parasite or virus in culture; assay type: cell-based; conditions: Mycobacterium tuberculosis, 336 h, 7H9 medium, day 14
SAWC1125 = assay: microbe, parasite or virus in culture; assay type: cell-based; conditions: Mycobacterium tuberculosis, 336 h; typical Beijing; day 14
SAWC2371 = assay: microbe, parasite or virus in culture; assay type: cell-based; conditions: Mycobacterium tuberculosis, 336 h; Haarlem; day 14
SAWC3200 = assay: microbe, parasite or virus in culture; assay type: cell-based; conditions: Mycobacterium tuberculosis, 336 h; X1; day 14
SAWC3385 = assay type: cell-based; conditions: Cas 1/Delhi
SAWC4046 = assay type: cell-based; conditions: Haarlem-like
SAWC3388 = assay type: cell-based; conditions: T1, Tuscany, T5/Rus
SAWC3906 = assay type: cell-based; conditions: atypic Beijing
SAWC3933 = assay type: cell-based; conditions: T1
WT H37Rv = assay: microbe, parasite or virus in culture; assay type: cell-based, M. tuberculosis; conditions: Mycobacterium tuberculosis
mmpL3-TetON = assay: microbe, parasite or virus in culture; assay type: cell-based, M. tuberculosis; conditions: for MIC / MIC50: Mycobacterium tuberculosis
Rv3247c hypomorph = assay: MIC against thymidylate kinase hypomorph; assay type: cell-based, Mycobacterium tuberculosis
From the text: Based on the structural similarity of the compounds with the published thymidylate kinase inhibitors,[39],[40] we asked whether this compound series can inhibit Mtb thymidylate kinase, which is an essential target encoded by Rv3247c. To investigate this, we tested the activity of the compounds 1, 2, and 12 against the Rv3247c hypomorph.

[1] = system: panel of 21 liability targets; conditions: 10 μM test concentration
[2] = Kinetic aqueous solubility at pH 7.4; assay type: physicochemical; conditions: phosphate buffered saline, pH 7.4, aqueous (kinetic) solubility at pH 7.4; read-out: Solubility
Method: 3) In vitro ADME - assays
The kinetic solubility assay was p erfo rmed using a miniaturised shake flask method. 10 mM stock solutions of each of the test compounds were used to prepare calibration standards (10-220 µM) in DMSO. The same 10 mM stock soluti ons were accurately dispensed in duplicat e into 96-well plates and the DMSO dried down (MiVac GeneVac, 90 min, 37 °C). Thereafter, the samples were reconstituted (200 µM) in phosphate buffered saline (pH 7. 4) and shaken (20 hours,25 °C). The solutions were centrifuged, and the supernatant was an alysed by means of HPLC-DAD (Agilent 1200 Rapid Resolution HPLC with a diode array detector). Best fit calibration curves were constructed using the calibration standards, which were used to determine the aqueous samples’ solubility.4
The metabolic stability assay was performed in dup licate in a 96-well micro t itre plate. The test compounds (0.1 µM) were incubated individually in mouse, rat and pooled human liver microsomes (final protei n concentration of 0.4 m g/mL; XenoTech, Lenexa, KS), suspended in 0.1M phosphate buffer (pH 7.4) for predetermined time points, in the presence and abs ence of the cofactor NADPH (1 mM). Reactions were quenched by adding 300 µL of ice cold acetonitrile containing internal standard (carbamazepine, 0.0236 µg/mL). The samples were centrifuged and test in the supernatant were an alysed by means of LC-MS/MS ((Agilent Rapid Resolution HPLC, AB SCIEX 4500 MS). The rel ative loss of parent compound over time w as monitored and plots (concentration vs. time) were prepared per compound to determine the first order rate constant for compound depletion. This was in turn used to calculate h alf-life, in vitro intrinsic clearance and in vivo hepatic extraction ratio. Metabolite search es were not conducted during the met abolic stability assay.5

in vivo = conditions: male, C57/BL6, mouse
[3] = Mouse pharmacokinetics, i.v. and oral; conditions: for tolerability: mouse, i.v. 2 mg/kg or oral 20 mg/kg
Mtb [4] = assay: microbe, parasite or virus in culture; assay type: cell-based, Mycobacterium tuberculosis
Mtb [5] = assay: Checkerboard (2D) MIC assay with Fe2+ in GAST media; assay type: cell-based, Mycobacterium tuberculosis; conditions: GAST medium, 100/200 μM Fe2+
[6] = mouse blood samples from the PK studies
[7] = antitubercular activity of the initial hits, medium not stated
[8] = supplement csv, medium not stated
[9] = male, C57/BL6, mouse, whole blood, iv, 2 mg/kg
[10] = male, C57/BL6, mouse, whole blood, oral, 20 mg/kg
[11] = male, C57/BL6, mouse, whole blood, po, 20 mg/kg

Compound | MIC99 (H37Rv) | MIC99 (SAWC1125) | MIC99 (SAWC2371) | MIC99 (SAWC3200) | MIC99 day 14, SAWC3385 (SAWC3385) | MIC99 day 14, SAWC4046 (SAWC4046) | MIC99 day 14, SAWC3388 (SAWC3388) | MIC99 day 14, SAWC3906 (SAWC3906) | MIC99 day 14, SAWC3933 (SAWC3933) | MIC50 (WT H37Rv; experiment: Follow-Up) | MIC50 (WT H37Rv; experiment: Initial) | change in MIC on transcriptional silencing of mmpL3 (mmpL3-TetON) | MIC (mmpL3-TetON; experiment: Follow-Up) | MIC50 (mmpL3-TetON; experiment: Follow-Up) | MIC (mmpL3-TetON; experiment: Initial) | MIC50 (mmpL3-TetON; experiment: Initial) | MIC modulation upon silencing of Rv3247c (Rv3247c hypomorph) | tolerability [3] | other results
Cc1cc(C)n(-c2nc(O)cc(-c3ccccc3)n2)n1 [Compound 1, 2-(3,5-Dimethyl-1H-pyrazol-1-yl)-6-phenylpyrimidin-4(3H)-one] | 1 to 2 µM (≈ 0.266 to 0.533 µg/mL) | 8 µM (≈ 2.13 µg/mL) | 0.25 to 0.5 µM (≈ 0.0666 to 0.133 µg/mL) | 0.25 µM (≈ 0.0666 µg/mL) | 0.25 to 0.5 µM | 0.25 to 0.5 µM | 0.25 to 0.5 µM | 0.25 µM (≈ 0.0666 µg/mL) | 2 to 4 µM | 0.49 µM (≈ 0.13 µg/mL) | 0.26 µM (≈ 0.0692 µg/mL) | no significant change | 0.57 µM (≈ 0.152 µg/mL) | 0.42 µM (≈ 0.112 µg/mL) | 0.7 µM (≈ 0.186 µg/mL) | 0.29 µM (≈ 0.0772 µg/mL) | did not observe any MIC modulation |  | MIC (Mtb H37Rv; [7]): < 2 µM; MIC (Mtb H37Rv; [8]): 1 µM (≈ 0.266 µg/mL); MIC (WT H37Rv; experiment: Follow-Up): 0.78 µM (≈ 0.208 µg/mL); inhibition or activation of the enzyme/receptors [1]: no significant inhibition or activation
Cc1ccc(Nc2cc(C)nn2-c2nc(C)cc(O)n2)cc1 [Compound 2, 6-Methyl-2-(3-methyl-5-(p-tolylamino)-1H-pyrazol-1-yl)pyrimidin-4(3H)-one] |  |  |  |  |  |  |  |  |  |  |  | no significant change |  |  |  |  | did not observe any MIC modulation |  | MIC (Mtb H37Rv; [7]): < 2 µM
Cc1cc(C)n(-c2nc(C(F)(F)F)cc(=O)[nH]2)n1 [Compound 12, 2-(3,5-Dimethyl-1H-pyrazol-1-yl)-6-(trifluoromethyl)pyrimidin-4(3H)-one] | 2 µM (≈ 0.516 µg/mL) | 8 to 16 µM (≈ 2.07 to 4.13 µg/mL) | 2 µM (≈ 0.516 µg/mL) | 1 µM (≈ 0.258 µg/mL) | 1 µM (≈ 0.258 µg/mL) | 1 µM (≈ 0.258 µg/mL) | 2 to 4 µM | 2 µM (≈ 0.516 µg/mL) |  | 8.3 µM (≈ 2.14 µg/mL) | 4.5 µM (≈ 1.16 µg/mL) | no significant change |  | 8.9 µM (≈ 2.3 µg/mL) | 6.2 µM (≈ 1.6 µg/mL) | 4.8 µM (≈ 1.24 µg/mL) | did not observe any MIC modulation | well tolerated | loss in activity (Mtb H37Rv; CH3 or CF3 at R1 instead of phenyl): 10–15 fold; solubility at 20 h [2]: ≥ 200 µM; MIC (WT H37Rv; experiment: Initial): 5.4 µM (≈ 1.39 µg/mL); inhibition or activation of the enzyme/receptors [1]: no significant inhibition or activation; half-life at 24 h (in vivo; iv, 2 mg/kg): 186 min; half-life at 24 h (in vivo; po, 20 mg/kg): 240 min; AUC(0-inf) at 24 h [3, 9]: 48.8 µM·h; clearance at 24 h [3, 9]: 2.7 mL/min/kg; bioavailability [3, 10]: ~40%
CC(=O)Nc1cc(C)nn1-c1nc(-c2ccccc2)cc(=O)[nH]1 [Compound 15, N-(3-Methyl-1-(4-oxo-6-phenyl-1,4-dihydropyrimidin-2-yl)-1H-pyrazol-5-yl)acetamide] | 4 to 8 µM (≈ 1.24 to 2.47 µg/mL) | 8 to 16 µM (≈ 2.47 to 4.95 µg/mL) |  | 1 µM (≈ 0.309 µg/mL) | 2 µM (≈ 0.619 µg/mL) |  |  | 2 µM (≈ 0.619 µg/mL) | 8 µM (≈ 2.47 µg/mL) |  |  | no significant change |  |  |  |  |  |  | 
Cc1cc(C)n(-c2nc(-c3ccncc3)cc(=O)[nH]2)n1 [Compound 20, 2-(3,5-Dimethyl-1H-pyrazol-1-yl)-6-(pyridin-4-yl)pyrimidin-4(3H)-one] | 4 to 8 µM (≈ 1.07 to 2.14 µg/mL) | 32 µM (≈ 8.55 µg/mL) | 2 to 4 µM (≈ 0.535 to 1.07 µg/mL) | 1 to 2 µM (≈ 0.267 to 0.535 µg/mL) | 2 to 4 µM | 2 to 4 µM | 4 to 8 µM | 2 µM (≈ 0.535 µg/mL) | 16 µM (≈ 4.28 µg/mL) |  |  |  |  |  |  |  |  |  | 
Cc1cc(Nc2ccc(F)cc2)n(-c2nc(C(F)(F)F)cc(=O)[nH]2)n1 [Compound 40, 2-(5-((4-Fluorophenyl)amino)-3-methyl-1H-pyrazol-1-yl)-6-(trifluoromethyl)pyrimidin-4(3H)-one] |  |  |  |  |  |  |  |  |  | 0.4 µM (≈ 0.141 µg/mL) | 0.3 µM (≈ 0.106 µg/mL) | no significant change | 0.56 µM (≈ 0.198 µg/mL) | 0.36 µM (≈ 0.127 µg/mL) | 0.34 µM (≈ 0.12 µg/mL) | 0.18 µM (≈ 0.0636 µg/mL) |  | well tolerated | MIC (WT H37Rv; experiment: Follow-Up): 0.51 µM (≈ 0.18 µg/mL); MIC (WT H37Rv; experiment: Initial): 0.54 µM (≈ 0.191 µg/mL); half-life (in vivo; iv, 2 mg/kg): 240 min; half-life (in vivo; po, 20 mg/kg): 366 min; AUC(0-inf) [3, 9]: 256 µM·h; CLint scaled [3, 9]: 34 mL/min/kg; Cmax [3, 9]: 33.1 µM; Vd [3, 9]: 0.1 L/kg; clearance [3, 9]: 0.4 mL/min/kg; bioavailability [3, 10]: ~40%; AUC(0-inf) [3, 11]: 1090 µM·h; Cmax [3, 11]: 104 µM; bioavailability [3, 11]: 44%
Cc1cc(Nc2ccccn2)n(-c2nc(C(F)(F)F)cc(=O)[nH]2)n1 [Compound 45, 2-(3-Methyl-5-(pyridin-2-ylamino)-1H-pyrazol-1-yl)-6-(trifluoromethyl)pyrimidin-4(3H)-one] |  |  |  |  |  |  |  |  |  |  |  |  |  |  |  |  |  |  | MIC (Mtb H37Rv; 168 h): ≤ 1 µM; Fold-change of MIC (Mtb [4]; 200 µM Ferric ammonium citrate): 2-4 fold; MIC (Mtb [4]; Mycobacterium tuberculosis, […], supplement: None): 0.39 µM (≈ 0.131 µg/mL); increase in MIC (Mtb [5]): ≥ 32 fold
CCNc1cc(C)nn1-c1nc(-c2cccnc2)cc(=O)[nH]1 [Compound 47, 2-(5-(Ethylamino)-3-methyl-1H-pyrazol-1-yl)-6-(pyridin-3-yl)pyrimidin-4(3H)-one] |  |  |  |  |  |  |  |  |  | 3.5 µM (≈ 1.04 µg/mL) | 2.5 µM (≈ 0.741 µg/mL) | no significant change | 4.4 µM (≈ 1.3 µg/mL) | 3.2 µM (≈ 0.948 µg/mL) | 2.4 µM (≈ 0.711 µg/mL) | 2.1 µM (≈ 0.622 µg/mL) |  | well tolerated | MIC (Mtb H37Rv; [8]): 6 µM (≈ 1.78 µg/mL); major metabolite [6]: glucuronide; half-life (in vivo; iv, 2 mg/kg): 336 min; half-life (in vivo; po, 20 mg/kg): 264 min; AUC(0-inf) [3, 9]: 1.52 µM·h; CLint scaled [3, 9]: > 4000 mL/min/kg; Cmax [3, 9]: 2.4 µM; Vd [3, 9]: 37.4 L/kg; AUC(0-inf) [3, 11]: 5.22 µM·h; Cmax [3, 11]: 2.9 µM; Tmax [3, 11]: 30 min; bioavailability [3, 11]: 33%
